According to article PMC9454246, “The PqsE Active Site as a Target for Small Molecule Antimicrobial Agents against Pseudomonas aeruginosa” (Biochemistry, 2022):

Columns and labels:
PqsE [1] = molecular target: T1, PqsE (Pseudomonas aeruginosa, UniProt P20581); details: in words; cited from earlier work
T1 construct: made in house

PqsE–RhlR interaction = molecular target: T2, PqsE–RhlR interaction (Pseudomonas aeruginosa, UniProt P20581); experiment: PqsE–RhlR interaction (in vitro pull-down); assay type: binding; details: in words
T2 construct: made in house
Method: (§1) 6xHis-PqsE proteins were purified for biochemical assays (tagged) and crystallography (tag removed), as described previously.[24] Enzyme activities of purified 6xHis-PqsE variants were measured as previously reported with MU-butyrate as the substrate.[25] Fluorescence polarization assays with the BB562 active site probe were performed as described.[24] The melting temperature (Tm) of each purified 6xHis-PqsE variant was measured using DSF as described previously.[24] Interaction between PqsE and RhlR proteins in vitro was measured as described previously using pull-down assays.[24] Pyocyanin production by P. aeruginosa PA14 strains carrying pqsE variants on the pUCP18 plasmid was measured as described.[24] The ability of PqsE variants to increase RhlR transcription factor activity in an E. coli reporter assay was assessed as previously described.[24] All small molecule syntheses and characterization are described in the Supporting Information.

PqsE [2] = molecular target: T1, PqsE; experiment: Competitive fluorescence polarization with the BB562 active site probe; details: competition with BB562 active site probe for binding to PqsE; one experiment performed in triplicate
Text: (a) Structures of the precursor molecules BB391 and BB393 and the hybrid derivative BB580. Positions denoted 1, 2, and 3 were derivatized to explore the binding affinity for the PqsE active site. […] Polarization value for PqsE-BB562 in the absence of a competitor is defined as 100% probe bound. All polarization values were background-subtracted by the reading for the probe in the absence of PqsE (background fluorescence). […] Both the BB584 molecule and key PqsE amino acid sidechains are shown as sticks. Amino acid sidechain carbons are depicted in gray and BB584 carbons are shown in tan. Iron atoms and water molecules are shown as orange and green spheres, respectively. Oxygen and nitrogen atoms are in red and blue, respectively. Hydrogen bonds are shown as dotted yellow lines.
as §1, with “Information. […]” for “Information.”
a Design of Hybrid Scaffold b Core Aromatic Group […]
Engaging Hydrophobic Groove […]
the amide bond orientation. b) Optimization of “position 2”, the core aromatic group. c) Optimization of “position 3”, the hydrophobic tail. Competition curves with the BB562 active site fluorescent probe were f it from the average of triplicates and erro r bars represent standard deviation s. Polarization value for PqsE-BB562 in the absence of competitor is defined as 100% Probe Bound. All polarization values were background-subtracted by the reading for the probe in the absence of PqsE (background fluorescence).

PqsE(E280A) = PqsE(E280A) (Pseudomonas aeruginosa, UniProt P20581, E280A); details: read-out: BB562 Binding Kapp; PqsE variant E280A; 2 µM MnCl2
Method: (§2) (a) Structure of PqsE(E182W) (blue) overlaid with that of WT PqsE (PDB: 2Q0I, gray). The active site iron atoms are shown in orange. […] (b) Structure of PqsE(E182W/E280A) (maroon) overlaid with that of WT PqsE (as in a). In panels a and b, residue E280 is shown in stick representation. […] Kapp was determined in two independent experiments performed in triplicate. (d) Hydrolysis of 4-methylumbelliferyl butyrate (MU-butyrate) by the designated purified PqsE proteins. Values are represented as % activity of WT PqsE protein. Results are the average of two independent experiments performed in triplicate. Error bars represent standard deviations. (e) First derivative plots (dF/dT is defined as the change in SYPRO Orange fluorescence divided by change in temperature) of melting curves for the designated PqsE proteins. The peak of each curve is defined as the Tm of that protein.
as §1
(§3) a Stability of PqsE Proteins WT
(§4) Hydrolysis of MU-butyrate
(§5) Fig. S3. Biochemical characterization of purified PqsE variants. a) First derivative plots of melt curves for
(§6) PqsE prot eins. All proteins were tested at 5 µM with 200 µM MnCl 2. dF/dT indicates the change in SYPRO
(§7) Orange fluorescence divided by the change in tempera ture.
(§8) Results are the average of two independent experiments performed in triplicate.
(§9) Error bars represent standard deviations.

PqsE(E182W/NI) = PqsE(E182W/NI) (Pseudomonas aeruginosa, UniProt P20581, E182W/R243A/R246A/R247A); details: read-out: BB562 Binding Kapp; PqsE variant E182W/NI; 2 µM MnCl2; error ND (could not be calculated)
Method: as §2, §1, §3, §4, §5, §6, §7, §8, §9

PqsE(D73A/E280A) = PqsE(D73A/E280A) (Pseudomonas aeruginosa, UniProt P20581, D73A/E280A); details: read-out: BB562 Binding Kapp; PqsE variant D73A/E280A; 2 µM MnCl2
Method: as §2, §1, §3, §4, §5, §6, §7, §8, §9

PqsE(D73A/NI) = PqsE(D73A/NI) (Pseudomonas aeruginosa, UniProt P20581, D73A/R243A/R246A/R247A); details: read-out: BB562 Binding Kapp; PqsE variant D73A/NI; 2 µM MnCl2; error ND (could not be calculated)
Method: as §2, §1, §3, §4, §5, §6, §7, §8, §9

PqsE(D73A/E182W) = PqsE(D73A/E182W) (Pseudomonas aeruginosa, UniProt P20581, D73A/E182W); details: read-out: BB562 Binding Kapp; PqsE variant D73A/E182W; 2 µM MnCl2; error ND (could not be calculated)
Method: as §2, §1, §3, §4, §5, §6, §7, §8, §9

PqsE(E182W/E280A) = PqsE(E182W/E280A) (Pseudomonas aeruginosa, UniProt P20581, E182W/E280A)
Method: as §2, §1, §3, §4, §5, §6, §7, §8, §9

PqsE(E182W) = PqsE(E182W) (Pseudomonas aeruginosa, UniProt P20581, E182W)
Method: as §2, §1, §3, §4, §5, §6, §7, §8, §9

PqsE(D73A) = PqsE(D73A) (Pseudomonas aeruginosa, UniProt P20581, D73A); details: read-out: BB562 Binding Kapp; PqsE variant D73A; 2 µM MnCl2
Method: as §2, §1, §3, §4, §5, §6, §7, §8, §9

PqsE(NI/E280A) = PqsE(NI/E280A) (Pseudomonas aeruginosa, UniProt P20581, E280A/R243A/R246A/R247A); details: read-out: BB562 Binding Kapp; PqsE variant NI/E280A; 2 µM MnCl2
Method: as §2, §1, §3, §4, §5, §6, §7, §8, §9

PqsE(NI) = PqsE(NI) (Pseudomonas aeruginosa, UniProt P20581, R243A/R246A/R247A); details: read-out: BB562 Binding Kapp; PqsE variant NI (R243A/R246A/R247A); 2 µM MnCl2
Method: as §2, §1, §3, §4, §5, §6, §7, §8, §9

WT PqsE = WT PqsE (Pseudomonas aeruginosa, UniProt P20581); details: read-out: BB562 Binding Kapp, 2 µM MnCl2, two independent experiments in triplicate
Method: as §2, §1, §3, §4, §5, §6, §7, §8, §9

**Q.** Which results are given for O=C(Nc1cccc(-c2ccn[nH]2)c1)c1cccc2cn[nH]c12 [BB391]?
**A.** competition with the BB562 active site probe for binding to PqsE (PqsE [1]): mid-nanomolar; inhibition/disruption of the PqsE–RhlR interaction (PqsE–RhlR interaction): none of the three compounds disrupt the PqsE–RhlR interaction; EC50 (PqsE [2]): 160 ± 54 nM

**Q.** Which results are given for CCC(C)(CNC(=O)Nc1ccc(C(=O)Nc2nccs2)cc1)N1CCOCC1 (stereo not drawn) [BB393]?
**A.** competition with the BB562 active site probe for binding to PqsE (PqsE [1]): mid-nanomolar; inhibition/disruption of the PqsE–RhlR interaction (PqsE–RhlR interaction): none of the three compounds disrupt the PqsE–RhlR interaction; EC50 (PqsE [2]): 93 ± 29 nM

**Q.** For O=C(NCCCn1cc(-c2ccc(NC(=O)c3cccc4cn[nH]c34)cc2)nn1)c1ccc2c(c1)C(=O)OC21c2ccc(O)cc2Oc2cc(O)ccc21 [BB562], which Kd (PqsE(E280A)) is on record?
**A.** The Kd was 210 ± 90 nM.

**Q.** What about the Kd (PqsE(E182W/NI)) of the same compound?
**A.** Its Kd is 4330 nM.

**Q.** What about the Kd (PqsE(D73A/E280A)) of the same compound?
**A.** The Kd was 468 ± 300 nM.

**Q.** And the Kd (PqsE(D73A/NI))?
**A.** The Kd was 564 nM.

**Q.** What about the Kd (PqsE(D73A/E182W)) of the same compound?
**A.** The Kd was 8120 nM.

**Q.** And the “binding affinity for the active site fluorescent probe” value (PqsE(E182W/E280A); PqsE(E182W/E280A), in words, relative to WT PqsE)?
**A.** Its value is “WT binding affinity”.

**Q.** And the Kd (PqsE(E182W/E280A); read-out: BB562 Binding Kapp, PqsE variant E182W/E280A, 2 µM MnCl2)?
**A.** Its Kd is 418 ± 160 nM.

**Q.** What about the “binding affinity for the active site fluorescent probe” value (PqsE(E182W); PqsE(E182W), in words, relative to WT PqsE) of the same compound?
**A.** The value was “reduced binding affinity”.

**Q.** What about the Kd (PqsE(E182W); read-out: BB562 Binding Kapp, PqsE variant E182W, 2 µM MnCl2) of the same compound?
**A.** The Kd was 5730 ± 4000 nM.

**Q.** What about the Kd (PqsE(D73A)) of the same compound?
**A.** Its Kd is 507 ± 380 nM.

**Q.** What about the Kd (PqsE(NI/E280A)) of the same compound?
**A.** The Kd was 669 ± 220 nM.

**Q.** And the Kd (PqsE(NI))?
**A.** Its Kd is 428 ± 100 nM.

**Q.** What about the Kd (WT PqsE) of the same compound?
**A.** The Kd was 416 ± 170 nM.

**Q.** With CCC(C)(CNC(=O)Nc1ccc(NC(=O)c2cccc3cn[nH]c23)cc1)N1CCOCC1 (stereo not drawn) [BB580] as the compound, how does the EC50 (PqsE [2]) read?
**A.** Its EC50 is 99 nM.

**Q.** With CCC(C)(CNC(=O)Nc1ccc(C(=O)Nc2cccc3cn[nH]c23)cc1)N1CCOCC1 (stereo not drawn) [BB581] as the compound, how does the EC50 (PqsE [2]) read?
**A.** Its EC50 is 281 nM.

**Q.** Which EC50 (PqsE [2]) does the source give for O=C(NCc1cnccn1)Nc1ccc(NC(=O)c2cccc3cn[nH]c23)cc1 [BB582] here?
**A.** Its EC50 is 302 ± 141 nM.

**Q.** With O=C(NCc1ccccc1)Nc1ccc(NC(=O)c2cccc3cn[nH]c23)cc1 [BB583] as the compound, how does the EC50 (PqsE [2]) read?
**A.** Its EC50 is 71 nM.

**Q.** Which results are given for CC(C)(C)CNC(=O)Nc1ccc(NC(=O)c2cccc3cn[nH]c23)cc1 [BB584]?
**A.** inhibition/disruption of the PqsE–RhlR interaction (PqsE–RhlR interaction): none of the three compounds disrupt the PqsE–RhlR interaction; EC50 (PqsE [2]): 34 nM

**Q.** Which EC50 (PqsE [2]) does the source give for CCC(C)(CNC(=O)Nc1cnc(NC(=O)c2cccc3cn[nH]c23)s1)N1CCOCC1 (stereo not drawn) [BB585] here?
**A.** The EC50 was > 1000 nM.

**Q.** For CCC(C)(CNC(=O)Nc1cc(NC(=O)c2cccc3cn[nH]c23)[nH]n1)N1CCOCC1 (stereo not drawn) [BB586], which EC50 (PqsE [2]) is on record?
**A.** Its EC50 is > 1000 nM.

**Q.** With CCC(CNC(=O)Nc1ccc(NC(=O)c2cccc3cn[nH]c23)cc1)N1CCOCC1 (stereo not drawn) [BB587] as the compound, how does the EC50 (PqsE [2]) read?
**A.** The EC50 was 273 nM.

**Q.** For CC(CNC(=O)Nc1ccc(NC(=O)c2cccc3cn[nH]c23)cc1)N1CCOCC1 (stereo not drawn) [BB588], which EC50 (PqsE [2]) is on record?
**A.** Its EC50 is 290 nM.

**Q.** With CCC(C)(CNC(=O)Nc1ccc(NC(=O)c2cccc3cn[nH]c23)nc1)N1CCOCC1 (stereo not drawn) [BB589] as the compound, how does the EC50 (PqsE [2]) read?
**A.** Its EC50 is 608 ± 647 nM.
